Results as given in ChEMBL document CHEMBL4840359, “N-Terminus to Arginine Side-Chain Cyclization of Linear Peptidic Neuropeptide Y Y4 Receptor Ligands Results in Picomolar Binding Constants” (J Med Chem, 2021).
Activity calls are given as the source filed them. The calls are words filed in the database; no cut-off is given here. Starred links: 1 amine or outer side, 2 acyl side, 3 side chain; linkers in the order of their positions; H or OH if unused. Residues, ends and D or L forms follow the SMILES beside them. Groups on a side chain read outwards from the residue. *: point of attachment. Suc = O=C(CCC(=O)[*:2])[*:1]; CO = O=C([*:1])[*:2]; NH(CH2)3NH2 = NCCCN*

Experiments:
[1] = target: T1, Neuropeptide Y receptor type 4 (Homo sapiens, UniProt P50391); assay: Agonist activity at human neuropeptide Y Y4 receptor expressed in HEK293T-ARRB1 cells assessed as stimulation of beta-arrestin 1 recruitment by multimode plate reader; type: functional, cell-based
Homo sapiens [2] = species: Homo sapiens; assay: Selectivity ratio, Ki for displacement of [3H]propionyl-pNPY from human neuropeptide Y Y5 receptor in human HEC-1B cells measured after 90 mins by scintillation counting analysis to Ki for displacement of [3H]UR-KK200 from human neuropeptide Y Y4 receptor expressed in CHO-mtAEQ cells co-expressing Gqi5 measured after 90 mins by scintillation counting analysis; type: cell-based
[3] = target: T2, Neuropeptide Y receptor type 5 (Homo sapiens, UniProt Q15761); assay: Displacement of [3H]propionyl-pNPY from human neuropeptide Y Y5 receptor in human HEC-1B cells measured after 90 mins by scintillation counting analysis; type: cell-based, HEC-1B cell line
T2 sequence (Q15761 whole entry): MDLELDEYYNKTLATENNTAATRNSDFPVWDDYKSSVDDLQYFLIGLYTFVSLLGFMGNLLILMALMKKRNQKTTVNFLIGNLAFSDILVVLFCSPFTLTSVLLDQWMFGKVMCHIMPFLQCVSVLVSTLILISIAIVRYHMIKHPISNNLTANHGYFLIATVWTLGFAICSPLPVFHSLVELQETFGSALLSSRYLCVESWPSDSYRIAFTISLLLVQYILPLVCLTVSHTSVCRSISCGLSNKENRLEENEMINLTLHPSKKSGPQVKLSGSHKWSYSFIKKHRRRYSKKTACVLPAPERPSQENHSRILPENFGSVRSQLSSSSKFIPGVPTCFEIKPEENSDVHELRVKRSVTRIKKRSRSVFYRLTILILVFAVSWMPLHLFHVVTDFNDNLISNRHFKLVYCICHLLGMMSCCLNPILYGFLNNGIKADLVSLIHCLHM

[4] = target: T1, Neuropeptide Y receptor type 4; assay: Intrinsic activity at human neuropeptide Y Y4 receptor expressed in HEK293T-ARRB2 cells assessed as stimulation of beta-arrestin 2 recruitment by multimode plate reader relative to hPP; type: functional, cell-based
[5] = target: T1, Neuropeptide Y receptor type 4; assay: Intrinsic activity at human neuropeptide Y Y4 receptor expressed in CHO-mtAEQ cells co-expressing Gqi5 by calcium aequorin assay; type: functional, cell-based
Homo sapiens [6] = species: Homo sapiens; assay: Selectivity ratio, Ki for displacement of [3H]UR-MK299 from human neuropeptide Y Y2 receptor expressed in CHO cells measured after 90 mins by scintillation counting analysis to Ki for displacement of [3H]UR-KK200 from human neuropeptide Y Y4 receptor expressed in CHO-mtAEQ cells co-expressing Gqi5 measured after 90 mins by scintillation counting analysis; type: cell-based
[7] = target: T3, Neuropeptide Y receptor type 1 (Homo sapiens, UniProt P25929); assay: Displacement of [3H]UR-MK299 from human neuropeptide Y Y1 receptor in human SK-N-MC cells measured after 90 mins by scintillation counting analysis; type: cell-based
T3 sequence (P25929 whole entry): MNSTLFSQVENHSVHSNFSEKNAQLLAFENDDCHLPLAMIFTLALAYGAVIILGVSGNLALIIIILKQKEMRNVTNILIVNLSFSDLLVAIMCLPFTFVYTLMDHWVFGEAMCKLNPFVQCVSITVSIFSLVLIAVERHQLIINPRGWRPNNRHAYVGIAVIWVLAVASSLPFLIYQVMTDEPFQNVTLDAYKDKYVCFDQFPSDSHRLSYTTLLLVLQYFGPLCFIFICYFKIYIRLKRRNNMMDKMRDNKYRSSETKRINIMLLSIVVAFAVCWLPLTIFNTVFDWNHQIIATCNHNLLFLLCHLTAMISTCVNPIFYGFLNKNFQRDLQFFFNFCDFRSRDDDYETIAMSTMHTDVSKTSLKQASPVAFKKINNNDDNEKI

[8] = target: T1, Neuropeptide Y receptor type 4; assay: Displacement of [3H]UR-KK200 from human neuropeptide Y Y4 receptor expressed in CHO-mtAEQ cells co-expressing Gqi5 assessed as fold change in affinity measured after 90 mins by scintillation counting analysis relative to Ac-Arg-Tyr-Arg-Leu-Arg-Tyr-NH2; type: cell-based; conditions: filed as agonist
Homo sapiens [9] = species: Homo sapiens; assay: Selectivity ratio, Ki for displacement of [3H]UR-MK299 from human neuropeptide Y Y1 receptor in human SK-N-MC cells measured after 90 mins by scintillation counting analysis to Ki for displacement of [3H]UR-KK200 from human neuropeptide Y Y4 receptor expressed in CHO-mtAEQ cells co-expressing Gqi5 measured after 90 mins by scintillation counting analysis; type: cell-based
[10] = target: T1, Neuropeptide Y receptor type 4; assay: Intrinsic activity at human neuropeptide Y Y4 receptor expressed in HEK293T-ARRB1 cells assessed as stimulation of beta-arrestin 1 recruitment by multimode plate reader relative to hPP; type: functional, cell-based
[11] = target: T1, Neuropeptide Y receptor type 4; assay: Agonist activity at human neuropeptide Y Y4 receptor expressed in CHO-mtAEQ cells co-expressing Gqi5 by calcium aequorin assay; type: functional, cell-based
[12] = target: T1, Neuropeptide Y receptor type 4; assay: Agonist activity at human neuropeptide Y Y4 receptor expressed in HEK293T-ARRB2 cells assessed as stimulation of beta-arrestin 2 recruitment by multimode plate reader; type: functional, cell-based
[13] = target: T1, Neuropeptide Y receptor type 4; assay: Displacement of [3H]UR-KK200 from human neuropeptide Y Y4 receptor expressed in CHO-mtAEQ cells co-expressing Gqi5 measured after 90 mins by scintillation counting analysis; type: cell-based
[14] = target: T4, Neuropeptide Y receptor type 2 (Homo sapiens, UniProt P49146); assay: Displacement of [3H]UR-MK299 from human neuropeptide Y Y2 receptor expressed in CHO cells measured after 90 mins by scintillation counting analysis; type: cell-based
T4 sequence (P49146 whole entry): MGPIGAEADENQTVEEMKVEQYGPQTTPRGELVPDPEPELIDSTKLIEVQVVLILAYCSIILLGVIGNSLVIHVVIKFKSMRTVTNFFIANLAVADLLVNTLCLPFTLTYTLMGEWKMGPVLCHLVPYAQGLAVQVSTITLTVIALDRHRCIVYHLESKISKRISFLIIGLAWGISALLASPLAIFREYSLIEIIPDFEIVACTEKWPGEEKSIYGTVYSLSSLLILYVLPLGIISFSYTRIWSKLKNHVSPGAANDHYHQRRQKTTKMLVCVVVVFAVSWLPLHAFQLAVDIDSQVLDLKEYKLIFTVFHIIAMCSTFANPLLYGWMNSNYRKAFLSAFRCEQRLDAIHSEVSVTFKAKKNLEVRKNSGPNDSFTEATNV

T1 sequence (P50391 whole entry): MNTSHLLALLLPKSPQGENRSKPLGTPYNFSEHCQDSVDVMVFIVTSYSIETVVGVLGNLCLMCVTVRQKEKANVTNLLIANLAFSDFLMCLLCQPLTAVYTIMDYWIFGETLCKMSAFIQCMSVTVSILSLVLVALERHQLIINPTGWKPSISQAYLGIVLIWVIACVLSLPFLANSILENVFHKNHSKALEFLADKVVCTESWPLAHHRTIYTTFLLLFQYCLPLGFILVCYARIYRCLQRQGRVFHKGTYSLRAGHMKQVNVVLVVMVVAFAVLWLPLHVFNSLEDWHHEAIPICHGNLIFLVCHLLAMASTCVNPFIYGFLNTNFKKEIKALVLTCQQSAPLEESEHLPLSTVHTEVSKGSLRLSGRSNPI

EC50 ([1]; read-out: EC50) [nM]	Ki ([3]; hec-1b cell line, read-out: Ki) [nM]	Ki ([3]; read-out: pKi (converted)) [nM]	Intrinsic activity [4]	Intrinsic activity [5]	Ki ([7]; read-out: pKi (converted)) [nM]	fold change (FC) [8]	Intrinsic activity [10]	EC50 [11] [nM]	EC50 [12] [nM]	Ki ([13]; read-out: Ki) [nM]	Ki ([13]; read-out: pKi (converted)) [nM]	Ki ([14]; read-out: Ki) [nM]	Ki ([14]; read-out: pKi (converted)) [nM]	EC50 ([1]; read-out: pEC50 (converted)) [nM]	Ki ([3]; read-out: Ki) [nM]	Ki ([7]; read-out: Ki) [nM]	Compound	Selectivity ratio (Homo sapiens [2])	Selectivity ratio (Homo sapiens [6])	Selectivity ratio (Homo sapiens [9])
50	> 10000	> 10000	71%	65%	> 10000	5.2	61%	178	129	0.66	0.646	> 10000	> 10000	–	–	–	CC(C)C[C@H](NC(=O)[C@H](CCCNC(=N)NC(=O)NCCCN)NC(=O)[C@H](Cc1ccc(O)cc1)NC(=O)[C@H](CCCNC(=N)N)NC(=O)CCC(=O)O)C(=O)N[C@@H](CCCNC(=N)N)C(=O)N[C@@H](Cc1ccc(O)cc1)C(N)=O	> 15000	> 15000	> 15000
–	–	> 3160	inactive	inactive	> 10000	-19	inactive	91.2	89.1	63	56.2	> 3000	> 3160	123	> 3000	–	N=C(N)NCCC[C@H](NC(=O)CCC(=O)O)C(=O)N[C@@H](Cc1ccc(O)cc1)C(=O)N[C@@H](CCCNC(=N)NC(=O)NCCCN)C(=O)N[C@@H](Cc1c[nH]c2ccccc12)C(=O)N[C@@H](CCCNC(=N)N)C(=O)N[C@@H](Cc1ccc(O)cc1)C(N)=O (Suc-RYR([CO-NH(CH2)3NH2])WRY-NH2)	> 47	> 47	> 150
3.5	–	> 1000	87%	83%	> 10000	26	90%	15.1	5.37	0.13	0.117	> 3000	> 3160	–	> 3000	–	CC(C)C[C@H](NC(=O)[C@@H]1CCCNC(=N)NC(=O)NCCCNC(=O)CCC(=O)N[C@@H](CCCNC(=N)N)C(=O)N[C@@H](Cc2ccc(O)cc2)C(=O)N1)C(=O)N[C@@H](CCCNC(=N)N)C(=O)N[C@@H](Cc1ccc(O)cc1)C(N)=O	> 23000	> 23000	> 76000
14	–	> 3160	67%	75%	> 3160	14	61%	25.7	12.9	0.24	–	> 10000	> 10000	–	> 3000	> 3000	CC(C)C[C@H](NC(=O)[C@@H]1CCCNC(=N)NC(=O)NCCCCNC(=O)CCC(=O)N[C@@H](CCCCN)C(=O)N[C@@H](Cc2ccc(O)cc2)C(=O)N1)C(=O)N[C@@H](CCCNC(=N)N)C(=O)N[C@@H](Cc1ccc(O)cc1)C(N)=O (HELM PEPTIDE1{K.Y.[N=C(NCCC[C@H](N[*:1])C(=O)[*:2])N[*:3]].L.R.Y.[am]}|CHEM1{[O=C(CCC(=O)[*:1])NCCCCNC(=O)[*:2]]}$PEPTIDE1,CHEM1,1:R1-1:R1|PEPTIDE1,CHEM1,3:R3-1:R2$$$V2.0)	> 12000	> 40000	> 12000
